Where a SMILES comes first, the peptide text is derived from it. [ ]: non-standard residue; d: D form. d(pGlu) = O=C1CC[C@H](C(=O)O)N1; pGlu = O=C1CC[C@@H](C(=O)O)N1 Where only a bound is given, the exact number is not on record here.

In data set [1] the test system is B16 F10 mouse melanoma cell line. Format: cell-based. The note with it: 24 h. On the procedure:
B16 F10 mouse melanoma cell line was cultured in RPMI medium supplemented with 10% fetal bovine serum (FBS; Gibco, USA), 10 U/ml penicillin and 10 µg/ml streptomycin. Cells were cultured in a humidified incubator containing 2.5% CO2 at 37°C.
B16 cells were incubated in 96-well microtiter plates in RPMI medium supplemented with 10% FBS until reach the semi-confluence and then treated with different concentrations of Gm and its analogues for 24 h. To investigate the mechanisms of Gm-induced cell death, B-16 cells were also pre-incubated with 40 µM cytochalasin D (Tocris, USA); 20 µM necrostatin-1 (Tocris, USA), 10 µM Z-VAD (Tocris, USA), 5 mM MβCD (Tocris, USA), and 100 µM chloroquine (Tocris, USA) for 1 h. Cell viability was determined using the standard reduction of the tetrazolium salt 3-(4,5-dimethylthiazol-2-yl)-2,5-diphenyltetrazolium bromide (MTT). The results were expressed relative to control cell viability (100%).

The next data set deals with B16 cells. Briefly: Peptide internalized into cells, biotinylated peptides, flow cytometry. In kind it is cell-based, mouse. The note with it: for internal presence of peptide after 24 h: 2 µM biotinylated peptides; for Max. Internal Fluorescence: biotinylated peptides used, 2 µM, B16 cells, streptavidin-Alexa 647 (FL4) after fixation and saponin permeabilization, maximum over time course, mean ± SEM, three independent experiments. How it is done:
Cells were treated with the 2 µM biotinylated peptide. Then, the melanoma cells (5×10^5 for flow cytometry or 5×10^3 cell seeded for confocal microscopy) were labeled with streptavidin-Alexa 488 (Invitrogen, USA) for 30 min at 4°C and washed with PBS. The cells were fixed with a solution of 2% paraformaldehyde for 30 min, washed with 0.1 M glycin, and permeabilized with 0.01% saponin. Then, the cells were labeled with streptavidin-Alexa 647 (Invitrogen, USA). For flow cytometry, the cells were extracted using PBS with 5 mM EDTA previously to fixation. The quantification of label of external biotynilated peptide, and intracellular peptide were performed by flow cytometry or confocal microscopy. For flow cytometry the cells were excited using argon laser (488 nm), and diode laser (633 nm). The emission was collected in FL-1 and FL-4 channel. A total of 10,000 events were collected per sample. For confocal microscopy, nuclei were stained with DAPI. Confocal microscopy analyses were performed with a confocal laser scanning microscope equipped with a Plan-Apochromat ×63 objective under oil immersion (Zeiss, LSM780). The pinhole device was adjusted to capture fluorescence of one airy unit. The images correspond to single focal plane. Streptavidin-Alexa Fluor 488 were excited using an argon laser (λEx. = 488 nm, λEm. = 505–550 nm), streptavidin-Alexa Fluor 647 was excited using a HeNe laser (λEx. = 633 nm, λEm. = 640–710 nm) and DAPI was excited using a multiphoton laser (Coherent) (λEx. = 750 nm, λEm. = 380–460 nm). Unviable cells were excluded with propidium iodide (PI) label.
We quantified the Gm and analogues binding to the cellular membrane, and their internalization using their biotinylated counterpart. […] Unviable cells were excluded by PI label (Figure S2). External peptides labeled with streptavidin Alexa Fluor 488 were identified for the quantification of the green fluorescence (FL1 channel), and internal peptides labeled with streptavidin Alexa Fluor 647 were identified for the quantification of the deep red fluorescence (FL4 channel), after permeabilization of cellular membrane, by Flow cytometry. […] On the other hand, the peptides that present lower cytotoxicity were not retained after 24 h (Figure 3A-F). However, a direct relation between binding, peptide entrance, and cytotoxicity effect was not full observed, the entrance into cells seem to be important to the action of several AMPs. To verify the participation of the entry of peptide with cytotoxicity cholesterol level cholesterol level was reduced incubating the cells with MβCD for 1 h, which increase the membrane fluidity. As expected, the treatment of the cells with MβCD increases the entry of peptide (Figure 3G) and increases the cytotoxicity of the peptides, except the analogue [Thr^2,6,11,15]-Gm (Figure 3H).
Background: In flow cytometry, cells or beads pass a laser one at a time.

Data set [2] in a line: Resistance to degradation by lysosomal enzymes (LC/ESI-MS). Format: in vitro ADME. Conditions: 37°C; for resistance to lysosomal enzyme degradation (in words): sonicated cells, pH 5 Tris buffer, different times, LC/ESI-MS (Figure 2B); for Peptide Degradation: sonicated cultured cells in pH 5 Tris buffer (lysosomal enzymes), incubation 1–14 h, starting peptide concentration 10^−4 M taken as 100%, LC/ESI-MS, mean ± SEM. How it is done: The cultured cells were resuspended using pH 5 Tris buffer, and then sonicated. Protein concentration was measured using the RC DC protein assay kit (Bio-Rad, CA, USA) according to the manufacturer’s instructions. The peptides were incubated with this protein solution for 1–14 h, and its stability was evaluated by reversed-phase liquid chromatography coupled with an electrospray ionization mass spectrometer (LC/ESI-MS).
Figure 2 Lysosomal enzymes participate in the cytotoxic reduction activities of the Gm analogues. (A, C and D) Cell viability was assessed by the MTT reduction test. (A) Cells were incubated with cytoskeletal inhibitor (cytochalasin D), and lysosomal inhibitor (chloroquine) for 1 h before to stimulation by Gm, and its analogues for 24 h. Chloroquine potentiated the cytotoxicity of peptides. (B) Since chloroquine was able to potentiate the cytotoxicity of the peptides, resistance to degradation of lysosomal enzymes was evaluated by LC/ESI-MS. Peptides were incubated at 37°C for different times. (C) Cells were incubated with the IC50 concentration for each peptide. Cytotoxic activities after 24 and 72 h of the peptide incubation were compared.

Usually IC50 stands for the concentration needed to halve the response being measured. Low values mean greater potency in that assay, high ones weaker potency in that assay. `CC(C)C[C@H](NC(=O)[C@H](CCCNC(=N)N)NC(=O)[C@H](CCCNC(=N)N)NC(=O)[C@@H](NC(=O)[C@@H]1CCC(=O)N1)[C@@H](C)O)C(=O)N[C@H](C(=O)N[C@@H](Cc1ccc(O)cc1)C(=O)N[C@@H](CCCCN)C(=O)N1CCC[C@@H]1C(=O)N[C@@H](CCCNC(=N)N)C(=O)N[C@H](C(=O)N[C@H](C(=O)N[C@H](C(=O)N[C@@H](Cc1ccc(O)cc1)C(=O)N[C@H](C(=O)N[C@@H](CCCNC(=N)N)C(=O)NCC(=O)N[C@@H](CCCNC(=N)N)C(N)=O)[C@@H](C)O)[C@@H](C)O)C(C)C)[C@@H](C)O)[C@@H](C)O` [[Thr^2,6,11,15, D-Pro^9]-Gm] ([pGlu]TRRLTYK[dP]RTVTYTRGR-NH2) had an IC50 in data set [1] of 90 µM. Besides, in the data set with B16 cells, the “internal presence of peptide after 24 h” value is on record as “internal presence” and the “Max. Internal Fluorescence” value came to 1165±27 AU. In addition, in data set [2], the “resistance to lysosomal enzyme degradation (in words)” value (“resistance” for short) was “stable to enzymatic degradation” and the “Peptide Degradation” value is 16±1%.

On to `CC(C)C[C@H](NC(=O)[C@H](CCCNC(=N)N)NC(=O)[C@H](CCCNC(=N)N)NC(=O)[C@@H](NC(=O)[C@@H]1CCC(=O)N1)[C@@H](C)O)C(=O)N[C@H](C(=O)N[C@@H](Cc1ccc(O)cc1)C(=O)N[C@@H](CCCCN)C(=O)N[C@@H](CCC(N)=O)C(=O)N[C@@H](CCCNC(=N)N)C(=O)N[C@H](C(=O)N[C@H](C(=O)N[C@H](C(=O)N[C@@H](Cc1ccc(O)cc1)C(=O)N[C@H](C(=O)N[C@@H](CCCNC(=N)N)C(=O)NCC(=O)N[C@@H](CCCNC(=N)N)C(N)=O)[C@@H](C)O)[C@@H](C)O)C(C)C)[C@@H](C)O)[C@@H](C)O` [[Thr^2,6,11,15]-Gm] ([pGlu]TRRLTYKQRTVTYTRGR-NH2), for which the IC50 in data set [1] is more than 200 µM. Further, the “Max. Internal Fluorescence” value in the data set on B16 cells was 753±175 AU. Moreover, in data set [2], the “resistance” value is recorded as “most sensitive peptides to degradation” and the “Peptide Degradation” value worked out at 43±4%.

The molecule `CC(C)C[C@H](NC(=O)[C@H](CCCNC(=N)N)NC(=O)[C@H](CCCNC(=N)N)NC(=O)[C@H](CO)NC(=O)[C@@H]1CCC(=O)N1)C(=O)N[C@@H](CO)C(=O)N[C@@H](Cc1ccc(O)cc1)C(=O)N[C@@H](CCCCN)C(=O)N[C@@H](CCC(N)=O)C(=O)N[C@@H](CCCNC(=N)N)C(=O)N[C@@H](CO)C(=O)N[C@H](C(=O)N[C@H](C(=O)N[C@@H](Cc1ccc(O)cc1)C(=O)N[C@@H](CO)C(=O)N[C@@H](CCCNC(=N)N)C(=O)NCC(=O)N[C@@H](CCCNC(=N)N)C(N)=O)[C@@H](C)O)C(C)C` [[Ser^2,6,11,15]-Gm] ([pGlu]SRRLSYKQRSVTYSRGR-NH2) returned an IC50 in data set [1] of more than 200 µM. Also, in the data set with B16 cells, the “Max. Internal Fluorescence” value is given as 305±65 AU. Moreover, in data set [2], the “resistance” value is recorded as “most sensitive peptides to degradation” and the “Peptide Degradation” value turned out to be 47±5%.

In data set [1], `CC(C)C[C@@H](NC(=O)[C@@H](CCCNC(=N)N)NC(=O)[C@@H](CCCNC(=N)N)NC(=O)[C@H](NC(=O)[C@H]1CCC(=O)N1)[C@H](C)O)C(=O)N[C@@H](C(=O)N[C@H](Cc1ccc(O)cc1)C(=O)N[C@H](CCCCN)C(=O)N1CCC[C@H]1C(=O)N[C@H](CCCNC(=N)N)C(=O)N[C@@H](C(=O)N[C@@H](C(=O)N[C@@H](C(=O)N[C@H](Cc1ccc(O)cc1)C(=O)N[C@@H](C(=O)N[C@H](CCCNC(=N)N)C(=O)NCC(=O)N[C@H](CCCNC(=N)N)C(N)=O)[C@H](C)O)[C@H](C)O)C(C)C)[C@H](C)O)[C@H](C)O` [[D-Thr^2,6,11,15, Pro^9]-D-Gm] ([d(pGlu)][dT][dR][dR][dL][dT][dY][dK]P[dR][dT][dV][dT][dY][dT][dR]G[dR]-NH2) showed a concentration for half-maximal inhibition (IC50) of 75 µM. For the same molecule, in the data set on B16 cells, the “internal presence of peptide after 24 h” value is on record as “internal presence” and the “Max. Internal Fluorescence” value is 2751±190 AU. Also, in data set [2], the “resistance” value is reported as “little affected by lysosomal enzymes” and the “Peptide Degradation” value came out at 15±2%.

`CC(C)C[C@@H](NC(=O)[C@@H](CCCNC(=N)N)NC(=O)[C@@H](CCCNC(=N)N)NC(=O)[C@H](NC(=O)[C@H]1CCC(=O)N1)[C@H](C)O)C(=O)N[C@@H](C(=O)N[C@H](Cc1ccc(O)cc1)C(=O)N[C@H](CCCCN)C(=O)N[C@H](CCC(N)=O)C(=O)N[C@H](CCCNC(=N)N)C(=O)N[C@@H](C(=O)N[C@@H](C(=O)N[C@@H](C(=O)N[C@H](Cc1ccc(O)cc1)C(=O)N[C@@H](C(=O)N[C@H](CCCNC(=N)N)C(=O)NCC(=O)N[C@H](CCCNC(=N)N)C(N)=O)[C@H](C)O)[C@H](C)O)C(C)C)[C@H](C)O)[C@H](C)O` [[D-Thr^2,6,11,15]-D-Gm] ([d(pGlu)][dT][dR][dR][dL][dT][dY][dK][dQ][dR][dT][dV][dT][dY][dT][dR]G[dR]-NH2) came in with an IC50 in data set [1] of 25 µM. For the same molecule, in data set [1] (B16 cells, MTT, ratio of potencies), the “fold less potent than Gm” value was 3.5 fold. Besides, in the data set with B16 cells, the “internal presence of peptide after 24 h” value is given as “internal presence” and the “Max. Internal Fluorescence” value came to 602±12 AU. In data set [2], the “resistance” value is on record as “little affected by lysosomal enzymes” and the “Peptide Degradation” value is reported as 12±2%.

The record behind these values is article PMC3843672, “Resistance to Degradation and Cellular Distribution are Important Features for the Antitumor Activity of Gomesin” (PLoS ONE, 2013).
